Columns and labels:
[1] = tested on: S. aureus Newman; test: Bliss interaction score (quartile over a dose matrix) (fitness difference); higher = more antagonism (negative = synergy)
How it was run: (§1)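 Each plate was normalised to the robust mean of its own no-drug wells, using OD595 at entry into stationary phase, with values capped at 1. This normalised growth is the fitness value. The Bliss score is the difference between observed and product-expected fitness, with single-drug fitness inferred from the combination data and quartiles taken over technical, biological and donor/recipient replicates.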

[2] = tested on: S. aureus DSM 20231; test: as above
How it was run: as §1

[3] = tested on: B. subtilis 168; test: as above
How it was run: as §1

[4] = tested on: S. pneumoniae D39V; test: as above
How it was run: as §1

[5] = tested on: S. aureus Newman; test: fitness (endpoint OD595 vs no drug) (fraction); higher = more growth
How it was run: (§2)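 With the first reading as background, OD595 was measured every 30 min for 14 h in 384-well plates kept at 37 °C and inoculated at OD595 0.01. TSB, LB Lennox or CY was the medium. Fitness is the optical density at the transition into stationary phase divided by the robust mean of no-drug control wells, with a cap of 1.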

[6] = tested on: S. aureus DSM 20231; test: as above
How it was run: as §2

[7] = tested on: B. subtilis 168; test: as above
How it was run: as §2

[8] = tested on: S. pneumoniae D39V; test: as above
How it was run: as §2
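For Bliss interaction score (quartile over a dose matrix) in this document: first quartile when negative (synergy) and third quartile when positive (antagonism).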

Cc1ncc([N+](=O)[O-])n1CCO [Metronidazole] + C[n+]1ccc(-c2cc[n+](C)cc2)cc1 [Paraquat]
Details | Bliss interaction score
[1] | 0.0779
[2] | 0.0478
[3] | 0.0442
[4] | -0.0431

fitness
Details | first compound 0.625 µg/mL | first compound 1.073 µg/mL | first compound 1.25 µg/mL | first compound 2.145 µg/mL | first compound 2.5 µg/mL | first compound 4.29 µg/mL
[5], partner 1.25 µg/mL | 0.936 | – | 0.875 | – | 0.862 | –
[5], partner 2.5 µg/mL | 0.944 | – | 0.934 | – | 0.963 | –
[5], partner 5 µg/mL | 0.888 | – | 0.932 | – | 0.973 | –
[6], partner 1.25 µg/mL | 0.97 | – | ≥ 1 | – | ≥ 1 | –
[6], partner 2.5 µg/mL | 0.954 | – | ≥ 1 | – | ≥ 1 | –
[6], partner 5 µg/mL | 0.955 | – | 0.978 | – | ≥ 1 | –
[7], partner 1.25 µg/mL | 0.973 | – | 0.949 | – | 0.917 | –
[7], partner 2.5 µg/mL | 0.957 | – | 0.929 | – | 0.917 | –
[7], partner 5 µg/mL | 0.851 | – | 0.864 | – | 0.851 | –
[8], partner 1.5 µg/mL | – | 0.969 | – | 0.958 | – | 0.899
[8], partner 3 µg/mL | – | 0.999 | – | 0.905 | – | 0.95
[8], partner 6 µg/mL | – | 0.982 | – | 0.803 | – | 0.912

fitness, one replicate
Details | first compound 0.781 µg/mL | first compound 1.25 µg/mL | first compound 1.562 µg/mL | first compound 2.5 µg/mL | first compound 3.124 µg/mL | first compound 5 µg/mL
[5], partner 1.25 µg/mL | 0.916 | – | 0.899 | – | 0.844 | –
[5], partner 2.5 µg/mL | 0.951 | – | 0.874 | – | 0.908 | –
[5], partner 5 µg/mL | 0.919 | – | 0.907 | – | 0.984 | –
[8], partner 1.5 µg/mL | – | 0.983 | – | ≥ 1 | – | ≥ 1
[8], partner 3 µg/mL | – | 0.99 | – | ≥ 1 | – | ≥ 1
[8], partner 6 µg/mL | – | ≥ 1 | – | ≥ 1 | – | ≥ 1

Cc1ncc([N+](=O)[O-])n1CCO [Metronidazole] + Cc1cc(NS(=O)(=O)c2ccc(N)cc2)no1 [Sulfamethoxazol]
Details | Bliss interaction score
[1] | 0.0439
[2] | 0.0776
[3] | 0.0475
[4] | -0.0219

fitness
Details | first compound 0.625 µg/mL | first compound 1.073 µg/mL | first compound 1.25 µg/mL | first compound 2.145 µg/mL | first compound 2.5 µg/mL | first compound 4.29 µg/mL
[5], partner 1 µg/mL | ≥ 1 | – | 0.977 | – | 0.97 | –
[5], partner 2 µg/mL | 0.94 | – | 0.978 | – | 0.95 | –
[5], partner 4 µg/mL | 0.979 | – | 0.997 | – | ≥ 1 | –
[6], partner 1 µg/mL | 0.982 | – | ≥ 1 | – | ≥ 1 | –
[6], partner 2 µg/mL | 0.983 | – | 0.986 | – | 0.988 | –
[6], partner 4 µg/mL | 0.963 | – | 0.969 | – | 0.992 | –
[7], partner 1 µg/mL | 0.876 | – | 0.951 | – | 0.948 | –
[7], partner 2 µg/mL | 0.91 | – | 0.903 | – | 0.896 | –
[7], partner 4 µg/mL | 0.962 | – | 0.992 | – | 0.96 | –
[8], partner 1 µg/mL | – | 0.935 | – | 0.792 | – | 0.912
[8], partner 2 µg/mL | – | 0.952 | – | 0.93 | – | 0.95
[8], partner 4 µg/mL | – | 0.984 | – | 0.952 | – | 0.944

one replicate
Details | fitness
[5], first compound 0.625 µg/mL, partner 8 µg/mL | 0.864
[5], first compound 0.781 µg/mL, partner 1 µg/mL | ≥ 1
[5], first compound 0.781 µg/mL, partner 2 µg/mL | ≥ 1
[5], first compound 0.781 µg/mL, partner 4 µg/mL | ≥ 1
[5], first compound 1.25 µg/mL, partner 8 µg/mL | 0.911
[5], first compound 1.562 µg/mL, partner 1 µg/mL | ≥ 1
[5], first compound 1.562 µg/mL, partner 2 µg/mL | ≥ 1
[5], first compound 1.562 µg/mL, partner 4 µg/mL | ≥ 1
[5], first compound 2.5 µg/mL, partner 8 µg/mL | 0.898
[5], first compound 3.124 µg/mL, partner 1 µg/mL | 0.992
[5], first compound 3.124 µg/mL, partner 2 µg/mL | 0.982
[5], first compound 3.124 µg/mL, partner 4 µg/mL | ≥ 1
[7], first compound 0.625 µg/mL, partner 0.5 µg/mL | ≥ 1
[7], first compound 1.25 µg/mL, partner 0.5 µg/mL | ≥ 1
[7], first compound 2.5 µg/mL, partner 0.5 µg/mL | ≥ 1
[8], first compound 1.25 µg/mL, partner 1 µg/mL | 0.979
[8], first compound 1.25 µg/mL, partner 2 µg/mL | ≥ 1
[8], first compound 1.25 µg/mL, partner 4 µg/mL | 0.916
[8], first compound 2.5 µg/mL, partner 1 µg/mL | ≥ 1
[8], first compound 2.5 µg/mL, partner 2 µg/mL | ≥ 1
[8], first compound 2.5 µg/mL, partner 4 µg/mL | 0.917
[8], first compound 5 µg/mL, partner 1 µg/mL | ≥ 1
[8], first compound 5 µg/mL, partner 2 µg/mL | ≥ 1
[8], first compound 5 µg/mL, partner 4 µg/mL | 0.9
